# Key:
# [1] = test system: SC-CA1 synapse; test: Chemically-induced slow-onset potentiation (L-LTP), fEPSP recording in hippocampal slices; format: cell-based, mouse; design: dose or concentration left out as unconfirmed
# Experimental: (§1) Transverse hippocampal slices were prepared as previously described (Abel et al., 1997). Mice of either sex, aged 7-18 weeks were used. Where appropriate, the experimenter was blind to animal genotype. […] For extracellular recordings, ACSF-filled glass electrodes (1-3 MW) were positioned in the stratum radiatum of area CA1. A bipolar nichrome stimulating electrode was also placed in stratum radiatum for stimulation of Schaffer collateral afferents (0.05 ms duration). Unless otherwise mentioned, test stimuli were applied at a frequency of 1 per minute (0.017 Hz), and at a stimulus intensity that elicits a fEPSP slope that was 35% of the maximum. Experiments in which changes in the fiber volley occurred, were discarded. Drugs were applied through the perfusion medium. DL-AP5, calyculin A, KT5720 and R(+)-6-Bromo-7,8-dihydroxy-3-allyl-1-phenyl-2,3,5-tetrahydro-1H-3-benzazepine (6-Br-APB) were purchased from Research Biochemicals International, Natick, Mass.
# [2] = test system: Schaffer collateral CA1 pathway; test: LTP induced by two 100 Hz trains (I-LTP) in slices of rTet-CN279 mice treated with doxycycline (rtTA system); format: cell-based, mouse; details: ACSF 6 ng doxycycline/ml
# Experimental: Recordings were performed as described in Winder et al., (1998). […] Test stimuli were applied at a frequency of 1 per min at an intensity that elicits an EPSP with a slope of […] of maximum. Slices from mice treated with doxycycline were incubated in ACSF containing doxycycline (6 ng/ml) for 2-3 hours before the tetanus was applied and subfused with doxycycline solution throughout the recordings.
# [3] = test system: SC-CA1 synapse; test: LTP induced by two trains in slices of Tet-CN279 mice on or off doxycycline (tTA system); format: cell-based, mouse
# Experimental: as §1
# The transgenic mice CN279 and CN273 were generated by microinjection of the linear construct as previously described (Hogan et al., 1994; Winder et al., 1998). Analysis of founder mice for integration of the transgene was performed by Southern blotting and PCR. The founder mice were backcrossed to C57BL6 F1/J mice to generate the transgenic lines CN279 and CN273. […]
# [4] = test system: SC-CA1 synapse; test: LTP induced by four 100 Hz trains in hippocampal slices in the presence of drugs; format: cell-based, mouse; details: wild-type slices; KT5720, 20 minute pretreatment; anisomycin 30 μM one hour
# Experimental: as §1
# [5] = test system: SC-CA1 synapse; test: LTP induced by two 100 Hz trains in hippocampal slices in the presence of drugs; format: cell-based, mouse; design: Sensitivity of LTP elicited by two trains to preincubation with the drug: dose or concentration left out as unconfirmed
# Experimental: as §1
# [6] = test system: NMDA receptors; test: NMDA-mediated synaptic potentials in hippocampal slices (DNQX, reduced Mg2+); format: cell-based, mouse; details: 50 (M DL-AP5); 10 (M DNQX, Mg2+ 50 μM)
# Experimental: as §1
# [7] = test system: protein synthesis in area CA1; details: 30 μM; Stanton and Sarvey, 1984; Osten et al., 1996; cited from earlier work
# [8] = test system: calcineurin; test: Phosphatase assay in hippocampal extracts of CN98 mice; format: biochemical, mouse; details: CN98 mutant and wild-type hippocampal extracts
# Experimental: Phosphatase assays were performed according to Hubbard and Klee (1991). Briefly, mice were injected with 5 ml/kg of pentobarbital and decapitated. Hippocampi were homogenized in 2 mM EDTA (pH 8), 250 mM sucrose, 0.1% β-mercaptoethanol and centrifuged. Supernatants were diluted in 40 mM Tris-HCl (pH 8), 0.1 M NaCl, 0.4 mg/ml bovine serum albumin, 1 mM DTT, […] okadaic acid (Buffer 1) and incubated at 30° C. for 1 min in Buffer 1 containing […] of the peptide [γ^32p]-RII subunit of cyclic AMP-dependent protein kinase (PKA) and either 0.1 mM calmodulin (SIGMA®) and 0.66 mM Ca^2( or 0.33 mM EGTA (pH 7.5). The peptide [Ala^97]-RII (Peninsula Labs) was labeled with 0.3 mM [γ^32p] ATP (NEN®) using […] catalytic subunit of PKA (FLUKA®). The reaction was stopped with 5% TCA in 0.1 M KH2PO4 and the enzyme activity was calculated as previously described (Klee et al., 1983) and is expressed in nmol Pi released/min/mg protein. The protein concentration was determined using the bicinchroninic acid protein assay kit (SIGMA®). All samples were performed in triplicate.
# [9] = test system: calcineurin; test: Phosphatase assay in hippocampal extracts of Tet-CN279 and Tet-CN273 mice; format: biochemical, mouse
# Experimental: Phosphatase assays were performed as described in Winder et al., 1998. Briefly, mice were injected with 5 ml/kg of pentobarbital and decapitated. Hippocampi were dissected out, homogenized in 2 mM EDTA (pH 8), 250 mM sucrose, 0.1% β-mercaptoethanol. Supernatants were incubated at 30° C. for 1 min in presence of the […] [[…]]-RII peptide and either 0.1 mM calmodulin and 0.66 mM Ca^2+ or 0.33 mM EGTA. The reaction was stopped and the enzyme activity calculated previously as described (Klee et al., 1983; 1987). The activity was expressed in nmol Pi released/min/mg protein. The protein concentration was determined using the bicinchroninic acid protein assay kit (SIGMA®). All samples were performed in triplicate.
# [10] = test system: calcineurin; test: Phosphatase assay in hippocampal extracts of rTet-CN279 mice; format: biochemical, mouse; details: extracts from control and mutant mice not treated or treated with doxycycline
# Experimental: Phosphatase assays were performed as described in Winder et al., 1998. Briefly, hippocampal extracts from rTet-CN279 adult mice were prepared in 2 mM EDTA (pH 8), 250 mM sucrose, 0.1% b-mercaptoethanol. Supernatants were incubated at 30° C. for 1 min in the presence of […] [[…]]-RII peptide and either 0.1 mM calmodulin and 0.66 mM Ca^2( or 0.33 mM EGTA. The enzyme activity was expressed in nmol Pi released/min/mg protein.
structure (smiles),measurement,setting,value
Nc1ncnc2c1ncn2[C@@H]1O[C@@H]2COP(O)(=S)O[C@H]2[C@H]1O (stereo partly drawn) [Sp-cAMPS],"fEPSP slope, % of baseline at 3 hr after drug application",[1]; CN98 mutant slices,122±17 % of baseline
same,"fEPSP slope, % of baseline at 3 hr after drug application",[1]; wild-type slices,124±13 % of baseline
C[C@H]1c2cccc(O)c2C(=O)C2=C(O)[C@]3(O)C(=O)C(C(N)=O)=C(O)[C@@H](N(C)C)[C@@H]3[C@@H](O)[C@@H]21 [doxycycline],"LTP induced by two 100 Hz trains (I-LTP), % of baseline at 1 hour",[2]; rTet-CN279 Control dox,195±9 % of baseline
same,"LTP induced by two 100 Hz trains (I-LTP), % of baseline at 1 hour",[2]; rTet-CN279 Mutant dox,141±8 % of baseline
same,"LTP induced by two trains, % of baseline at 1 hr","[3]; Tet-CN279 Wt on doxycycline (1 mg/ml water, 1 ng/ml ACSF)",191±18 % of baseline
same,"LTP induced by two trains, % of baseline at 1 hr","[3]; Tet-CN279 mutant on doxycycline (1 mg/ml water, 1 ng/ml ACSF)",184±18 % of baseline
CCCCCCOC(=O)[C@]1(O)C[C@@H]2O[C@@]1(C)n1c3ccccc3c3c4c(c5c6ccccc6n2c5c31)C(=O)NC4 [KT5720],"Decay of LTP induced by four 100 Hz trains, compared with anisomycin",[4],much more rapid decay of LTP
same,"LTP elicited by two trains, % of baseline at 1 hr","[5]; wild-type slices, KT5720, no drug 206±23%",153±5 % of baseline
NC(CCCP(=O)(O)O)C(=O)O (racemic) [DL-AP5],NMDA-mediated field potentials in the presence of the drug,[6],abolished
COC[C@@H]([C@H](O)[C@H](O)C(=O)NCC[C@H](C)c1nc(/C=C/C[C@@H]2O[C@]3(C[C@@H](O)[C@@H]2C)O[C@H]([C@H](C[C@H](O)[C@H](C)[C@H](O)[C@H](C)/C=C(C)/C(C)=C/C=C/C(C)=C\C#N)OC)[C@H](OP(=O)(O)O)C3(C)C)co1)N(C)C [calyculin A],"LTP induced with two 100 Hz trains after drug pretreatment, mutant versus wild-type","[5]; Tet-CN279 mutant slices, 750 nM, 30 minutes pretreatment",indistinguishable from that seen in wild-type
COc1ccc(C[C@H]2NC[C@H](O)[C@H]2OC(C)=O)cc1 [anisomycin],Effect on protein synthesis in area CA1,[7],completely block protein synthesis
same,Sensitivity of LTP elicited by two trains to preincubation with the drug,"[5]; wild-type slices, anisomycin (FIG. 4C)",completely insensitive
O=C(O)CN(CCOCCOCCN(CC(=O)O)CC(=O)O)CC(=O)O [EGTA],Phosphatase activity in the presence of the calcium chelator,[8],virtually abolished
same,Phosphatase activity,[9]; mutant (Tet-CN279+Tet-CN273)+EGTA,0.287±0.17 nmol Pi/min/mg
same,Phosphatase activity,[9]; wild-type (Tet-CN279+Tet-CN273)+EGTA,0.432±0.11 nmol Pi/min/mg
same,Phosphatase activity in the presence of the Ca2+ chelator,[10],blocked
"C=CCN1CCc2c(cc(O)c(O)c2Br)[C@@H](c2ccccc2)C1 [6-Br-APB, R(+)-6-Bromo-7,8-dihydroxy-3-allyl-1-phenyl-2,3,5-tetrahydro-1H-3-benzazepine]","fEPSP slope, % of baseline at 3 hr after drug application",[1]; CN98 mutant slices,181±41 % of baseline
same,"fEPSP slope, % of baseline at 3 hr after drug application",[1]; wild-type slices,204±40 % of baseline

# — patent publication US20020129385A1, “MEDTHODS FOR IMPROVING LONG-TERM MEMORY STORAGE AND RETRIEVAL” (priority 1998, published 2002)
